Data published in ChEMBL document CHEMBL1133714, “1-(2-Nitrophenyl)thiosemicarbazides: a novel class of potent, orally active non-peptide antagonist for the bradykinin B(2) receptor” (J Med Chem, 2000).

molecular target: T1, B2 bradykinin receptor (Rattus norvegicus, UniProt P25023); assay: Inhibition of binding of [3H]BK to rat bradykinin B2 receptor expressed in NG108-15 neuroblastoma-glioma hybrid cell membranes; parameters: species or system Membrane
T1 sequence (P25023 whole entry): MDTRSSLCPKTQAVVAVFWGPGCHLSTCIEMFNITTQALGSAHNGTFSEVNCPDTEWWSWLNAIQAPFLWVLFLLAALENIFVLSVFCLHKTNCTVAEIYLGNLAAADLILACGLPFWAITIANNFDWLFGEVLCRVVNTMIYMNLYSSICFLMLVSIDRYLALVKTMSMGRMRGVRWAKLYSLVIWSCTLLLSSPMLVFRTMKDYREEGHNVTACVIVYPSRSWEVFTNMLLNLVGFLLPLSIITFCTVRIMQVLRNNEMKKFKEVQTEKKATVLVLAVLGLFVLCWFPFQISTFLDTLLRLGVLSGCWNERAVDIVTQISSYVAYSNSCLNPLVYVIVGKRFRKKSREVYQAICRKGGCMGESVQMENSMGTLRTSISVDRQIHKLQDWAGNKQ

First: O=C(O)c1ccccc1NNC(=S)NCc1ccccc1
Second: S=C(NCc1ccccc1)NNc1ccccc1
The Ki of the first is higher: > 100000 nM for the first, 100000 nM for the second. The second binds more tightly here.

Going from `O=[N+]([O-])c1ccccc1N/N=C(/S)NCc1ccccc1` to `O=[N+]([O-])c1cccc(N/N=C(\S)NCc2ccccc2)c1`, the Ki rises from 1600 nM to > 100000 nM. The first binds more tightly here.

`O=[N+]([O-])c1cc(S(=O)(=O)NCc2ccccc2)ccc1N/N=C(\S)CCc1ccccc1` and `O=[N+]([O-])c1cc(S(=O)(=O)NCc2ccccc2)ccc1NC/C(S)=N\Cc1ccccc1` cannot be ordered by Ki: > 100000 nM for the first, > 100000 nM for the second.

Compared with `O=[N+]([O-])c1ccccc1N/N=C(/S)NC(c1ccccc1)c1ccccc1`, `NC(=O)c1ccc(N/N=C(/S)NC(c2ccccc2)c2ccccc2)c([N+](=O)[O-])c1` is 21-fold lower in Ki: 38 nM for the first, 1.8 nM for the second. The second binds more tightly here.

Going from `CN(C)CCCN(CCCN(C)C)S(=O)(=O)c1ccc(NNC(=S)NC(c2ccccc2)c2ccccc2)c([N+](=O)[O-])c1` to `CN(C)CCN(C)CCNC(=O)[C@H]1CCCN1S(=O)(=O)c1ccc(NNC(=S)NC(c2ccccc2)c2ccccc2)c([N+](=O)[O-])c1`, the Ki falls from 148 nM to 0.6 nM (250-fold).

Going from `O=[N+]([O-])c1cc(S(=O)(=O)NCc2ccccc2)ccc1NNC(=S)NCc1ccccc1` to `O=[N+]([O-])c1cc(S(=O)(=O)NCc2ccco2)ccc1NNC(=S)NCc1ccco1`, the Ki rises from 310 nM to 540 nM (1.7-fold).

Compared with `O=C(NCc1ccccc1)NCc1ccccc1[N+](=O)[O-]`, `O=[N+]([O-])c1ccccc1CNC(=S)NCc1ccccc1` is lower in Ki: > 100000 nM for the first, 7100 nM for the second.

First: NS(=O)(=O)c1ccc(N/N=C(/S)NC(c2ccccc2)c2ccccc2)c([N+](=O)[O-])c1
Second: CN(C)CCN(C)CCNC(=O)[C@@H]1CCCN1S(=O)(=O)c1ccc(NNC(=S)NC(c2ccccc2)c2ccccc2)c([N+](=O)[O-])c1
The Ki of the first is 8-fold higher: 4 nM for the first, 0.5 nM for the second. The second binds more tightly here.
